Each molecule was assayed against T1, P2X7 receptor (Homo sapiens, UniProt Q99572) (assay: High throughput P2X7 calcium mobilization assay (Example 4A)). Conditions: SH-SY5Y cells; 50% decrease in fluorescence response of cells exposed to 80 μM BzATP; Table I.
T1 construct: host or cells: SH-SY5Y
T1 sequence (Q99572 1-595): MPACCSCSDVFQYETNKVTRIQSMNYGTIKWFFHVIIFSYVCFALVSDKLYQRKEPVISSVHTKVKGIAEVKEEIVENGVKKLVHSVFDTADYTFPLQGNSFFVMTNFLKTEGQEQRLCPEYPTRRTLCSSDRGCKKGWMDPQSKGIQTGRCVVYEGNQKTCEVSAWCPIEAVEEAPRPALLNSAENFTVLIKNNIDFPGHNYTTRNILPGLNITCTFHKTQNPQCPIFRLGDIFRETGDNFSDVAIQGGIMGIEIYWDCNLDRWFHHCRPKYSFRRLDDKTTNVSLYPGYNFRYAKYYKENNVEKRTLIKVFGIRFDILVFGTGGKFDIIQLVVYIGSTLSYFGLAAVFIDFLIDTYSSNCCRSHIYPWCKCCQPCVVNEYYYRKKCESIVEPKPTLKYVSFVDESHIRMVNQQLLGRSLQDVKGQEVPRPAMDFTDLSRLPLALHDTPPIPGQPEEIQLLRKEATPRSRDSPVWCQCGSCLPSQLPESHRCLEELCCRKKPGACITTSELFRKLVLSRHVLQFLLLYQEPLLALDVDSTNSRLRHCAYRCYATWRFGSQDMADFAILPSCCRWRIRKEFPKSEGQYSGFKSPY
Type: cell-based
Summary of the method: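 Calcium mobilization read by FLIPR as peak fluorescence over 2 min after adding BzATP to a final 80 μM (about EC50). Beforehand, Fluo-4 AM-loaded SH-SY5Y cells sat 1 h at room temperature with compound at 1–2500 nM in pH 7.4 sucrose/HEPES buffer; signal minus no-agonist wells.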

Structure (SMILES) | IC50 [µM]
O=C(NCC1(N2CCCCC2)CCCCC1)c1sc(-c2ncccn2)nc1C(F)(F)F [Compound 296, N-[(1-piperidin-1-ylcyclohexyl)methyl]-2-pyrimidin-2-yl-4-(trifluoromethyl)-1,3-thiazole-5-carboxamide] | ≤ 2
CC(C)n1cc(C2(CNC(=O)c3sc(-c4ncccn4)nc3C(F)(F)F)CCCCC2)cn1 [Compound 297, N-{[1-(1-isopropyl-1H-pyrazol-4-yl)cyclohexyl]methyl}-2-pyrimidin-2-yl-4-(trifluoromethyl)-1,3-thiazole-5-carboxamide] | ≤ 2
CCc1nc(-c2ncccn2)sc1C(=O)NCC1(c2ccc(Cl)nc2)CCCCC1 [Compound 298, N-{[1-(6-chloropyridin-3-yl)cyclohexyl]methyl}-4-ethyl-2-pyrimidin-2-yl-1,3-thiazole-5-carboxamide] | ≤ 2
CCc1nc(-c2ncccn2)sc1C(=O)NCC(CC(C)C)c1ccc(Cl)nc1 (centres unmarked) [Compound 299, N-[2-(6-chloropyridin-3-yl)-4-methylpentyl]-4-ethyl-2-pyrimidin-2-yl-1,3-thiazole-5-carboxamide] | ≤ 2
O=C(NCC1(c2cccnc2)CCCCC1)c1sc(N2CCNCC2)nc1C(F)(F)F [Compound 300, 2-piperazin-1-yl-N-[(1-pyridin-3-ylcyclohexyl)methyl]-4-(trifluoromethyl)-1,3-thiazole-5-carboxamide] | ≤ 2
CC(C)(C)OC(=O)NC1CCN(c2nc(C(F)(F)F)c(C(=O)NCC3(c4cccnc4)CCCCC3)s2)CC1 [Compound 301, tert-butyl {1-[5-{[(1-pyridin-3-ylcyclohexyl)methyl]carbamoyl}-4-(trifluoromethyl)-1,3-thiazol-2-yl]piperidin-4-yl}carbamate] | ≤ 2
O=C(NCC1(c2cccnc2)CCCCC1)c1sc(N2CCC(N3CCCC3)CC2)nc1C(F)(F)F [Compound 302, N-[(1-pyridin-3-ylcyclohexyl)methyl]-2-(4-pyrrolidin-1-ylpiperidin-1-yl)-4-(trifluoromethyl)-1,3-thiazole-5-carboxamide] | ≤ 2
NC1CCN(c2nc(C(F)(F)F)c(C(=O)NCC3(c4cccnc4)CCCCC3)s2)CC1 [Compound 303, 2-(4-aminopiperidin-1-yl)-N-[(1-pyridin-3-ylcyclohexyl)methyl]-4-(trifluoromethyl)-1,3-thiazole-5-carboxamide] | ≤ 2
CC(C)CC(CNC(=O)c1sc(-c2ncccn2)nc1C(F)(F)F)c1ccc(C(F)(F)F)nc1 (centres unmarked) [Compound 304, N-{4-methyl-2-[6-(trifluoromethyl)pyridin-3-yl]pentyl}-2-pyrimidin-2-yl-4-(trifluoromethyl)-1,3-thiazole-5-carboxamide] | ≤ 2
CCc1nc(-c2ncccn2)sc1C(=O)NCC(CC(C)C)c1ccc(C(F)(F)F)nc1 (centres unmarked) [Compound 305, 4-ethyl-N-{4-methyl-2-[6-(trifluoromethyl)pyridin-3-yl]pentyl}-2-pyrimidin-2-yl-1,3-thiazole-5-carboxamide] | ≤ 2
Cc1nc(-c2ncccn2)sc1C(=O)NCC(CC(C)C)c1ccc(C(F)(F)F)nc1 (centres unmarked) [Compound 306, 4-methyl-N-{4-methyl-2-[6-(trifluoromethyl)pyridin-3-yl]pentyl}-2-pyrimidin-2-yl-1,3-thiazole-5-carboxamide] | ≤ 2
O=C(NCC1(c2cccnc2)CCCCC1)c1sc(-n2ncccc2=O)nc1C(F)(F)F [Compound 307, 2-(6-oxopyridazin-1(6H)-yl)-N-[(1-pyridin-3-ylcyclohexyl)methyl]-4-(trifluoromethyl)-1,3-thiazole-5-carboxamide] | ≤ 2

The next lines start with the values.

IC50 [µM] | Structure (SMILES)
≤ 2 | O=C(NCC1(c2cccnc2)CCCCC1)c1sc(-n2ccnn2)nc1C(F)(F)F [Compound 308, N-[(1-pyridin-3-ylcyclohexyl)methyl]-2-(1H-1,2,3-triazol-1-yl)-4-(trifluoromethyl)-1,3-thiazole-5-carboxamide]
≤ 2 | O=C(NCC1(c2cccnc2)CCCCC1)c1sc(-n2nccn2)nc1C(F)(F)F [Compound 309, N-[(1-pyridin-3-ylcyclohexyl)methyl]-2-(2H-1,2,3-triazol-2-yl)-4-(trifluoromethyl)-1,3-thiazole-5-carboxamide]
≤ 2 | O=C(NCC1(c2cccnc2)CCCCC1)c1sc(-n2cncn2)nc1C(F)(F)F [Compound 310, N-[(1-pyridin-3-ylcyclohexyl)methyl]-2-(1H-1,2,4-triazol-1-yl)-4-(trifluoromethyl)-1,3-thiazole-5-carboxamide]
≤ 2 | Cc1nc(-c2cccnc2)sc1C(=O)NCC1(c2cccnc2)CCCCC1 [Compound 311, 4-methyl-2-pyridin-3-yl-N-[(1-pyridin-3-ylcyclohexyl)methyl]-1,3-thiazole-5-carboxamide]
≤ 2 | CN1CCN(C2(CNC(=O)c3sc(-c4ncccn4)nc3C(F)(F)F)CCCCC2)CC1 [Compound 312, N-{[1-(4-methylpiperazin-1-yl)cyclohexyl]methyl}-2-pyrimidin-2-yl-4-(trifluoromethyl)-1,3-thiazole-5-carboxamide]
≤ 2 | O=C(NCC1(N2CCNCC2)CCCCC1)c1sc(-c2ncccn2)nc1C(F)(F)F [Compound 313, N-[(1-piperazin-1-ylcyclohexyl)methyl]-2-pyrimidin-2-yl-4-(trifluoromethyl)-1,3-thiazole-5-carboxamide]
≤ 2 | O=C(NCC(c1ccc(Cl)cc1)N1CCOCC1)c1sc(-c2ncccn2)nc1C(F)(F)F (centres unmarked) [Compound 314, N-[2-(4-chlorophenyl)-2-morpholin-4-ylethyl]-2-pyrimidin-2-yl-4-(trifluoromethyl)-1,3-thiazole-5-carboxamide]
≤ 2 | CCc1nc(-c2ncccn2)sc1C(=O)NCC(c1ccc(C(F)(F)F)cc1)N(C)C(C)C (centres unmarked) [Compound 315, 4-ethyl-N-{2-[isopropyl(methyl)amino]-2-[4-(trifluoromethyl)phenyl]ethyl}-2-pyrimidin-2-yl-1,3-thiazole-5-carboxamide]
≤ 2 | O=C(NCC1(c2cccnc2)CCCCC1)c1sc(-c2cnccn2)nc1C(F)(F)F [Compound 316, 2-pyrazin-2-yl-N-[(1-pyridin-3-ylcyclohexyl)methyl]-4-(trifluoromethyl)-1,3-thiazole-5-carboxamide]
≤ 2 | O=C(NCC1(c2cccnc2)CCCCC1)c1sc(-c2nccs2)nc1C(F)(F)F [Compound 317, N-[(1-pyridin-3-ylcyclohexyl)methyl]-4-(trifluoromethyl)-2,2′-bi-1,3-thiazole-5-carboxamide]
≤ 2 | O=C(NCC1(c2cccnc2)CCCCC1)c1sc(-c2ccc3[nH]ccc3c2)nc1C(F)(F)F [Compound 318, 2-(1H-indol-5-yl)-N-[(1-pyridin-3-ylcyclohexyl)methyl]-4-(trifluoromethyl)-1,3-thiazole-5-carboxamide]
≤ 2 | O=C(NCC1(c2cccnc2)CCCCC1)c1sc(-c2cccc3cccnc23)nc1C(F)(F)F [Compound 319, N-[(1-pyridin-3-ylcyclohexyl)methyl]-2-quinolin-8-yl-4-(trifluoromethyl)-1,3-thiazole-5-carboxamide]
≤ 2 | CC(C)CC(CNC(=O)c1sc(-c2ncccn2)nc1C(F)(F)F)c1cccnc1 (centres unmarked) [Compound 320, N-(4-methyl-2-pyridin-3-ylpentyl)-2-pyrimidin-2-yl-4-(trifluoromethyl)-1,3-thiazole-5-carboxamide]
≤ 2 | O=C(NCC1(c2cccnc2)CCCCC1)c1sc(-c2ccccn2)nc1C(F)(F)F [Compound 321, 2-pyridin-2-yl-N-[(1-pyridin-3-ylcyclohexyl)methyl]-4-(trifluoromethyl)-1,3-thiazole-5-carboxamide]

Reference: patent US9133204B2, “5-membered heterocyclic amides and related compounds” (H. Lundbeck A/S, priority 2007, dated 2015)
